The results in this text go back to publication PMC4076210, “Discovery of Novel AKT Inhibitors with Enhanced Anti-Tumor Effects in Combination with the MEK Inhibitor” (PLoS ONE, 2014).

Common to all, as to assay: Kinase panel
Assay type in all cases: biochemical

The target in assay [1] is T1, EphB2(h) (Homo sapiens, UniProt P29323).
T1 construct: purchased Millipore KinaseProfiler
T1 sequence (P29323 19-1055): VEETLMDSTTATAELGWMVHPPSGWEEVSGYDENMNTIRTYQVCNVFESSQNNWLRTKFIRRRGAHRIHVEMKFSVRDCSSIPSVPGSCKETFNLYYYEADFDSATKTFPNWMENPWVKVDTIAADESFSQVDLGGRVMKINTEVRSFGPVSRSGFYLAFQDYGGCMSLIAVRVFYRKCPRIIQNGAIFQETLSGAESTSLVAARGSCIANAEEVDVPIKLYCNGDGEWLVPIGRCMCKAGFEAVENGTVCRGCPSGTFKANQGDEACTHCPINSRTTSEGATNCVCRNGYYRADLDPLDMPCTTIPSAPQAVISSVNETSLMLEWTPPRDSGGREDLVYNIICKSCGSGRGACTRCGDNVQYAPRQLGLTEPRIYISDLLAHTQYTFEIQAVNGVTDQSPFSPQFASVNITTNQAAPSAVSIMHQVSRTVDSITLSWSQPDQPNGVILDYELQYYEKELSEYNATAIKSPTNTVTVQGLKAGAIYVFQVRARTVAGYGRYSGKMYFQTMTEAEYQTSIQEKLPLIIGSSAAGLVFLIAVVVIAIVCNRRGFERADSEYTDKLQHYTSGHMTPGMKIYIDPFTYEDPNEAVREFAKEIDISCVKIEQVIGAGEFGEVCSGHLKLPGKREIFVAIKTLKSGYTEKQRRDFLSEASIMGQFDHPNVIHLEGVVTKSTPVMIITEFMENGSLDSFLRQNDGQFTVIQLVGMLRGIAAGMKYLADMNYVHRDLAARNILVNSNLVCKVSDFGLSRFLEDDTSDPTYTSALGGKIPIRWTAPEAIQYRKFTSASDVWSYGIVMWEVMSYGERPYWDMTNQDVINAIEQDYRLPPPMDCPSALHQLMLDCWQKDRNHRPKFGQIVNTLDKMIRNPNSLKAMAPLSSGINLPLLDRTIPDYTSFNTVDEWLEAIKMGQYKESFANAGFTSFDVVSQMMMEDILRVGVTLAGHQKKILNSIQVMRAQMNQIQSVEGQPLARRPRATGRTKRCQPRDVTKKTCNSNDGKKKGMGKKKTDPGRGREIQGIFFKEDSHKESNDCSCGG

Assay [2] addresses T2, Bmx(h) (Homo sapiens, UniProt P51813).
T2 construct: purchased Millipore KinaseProfiler
T2 sequence (P51813 1-675): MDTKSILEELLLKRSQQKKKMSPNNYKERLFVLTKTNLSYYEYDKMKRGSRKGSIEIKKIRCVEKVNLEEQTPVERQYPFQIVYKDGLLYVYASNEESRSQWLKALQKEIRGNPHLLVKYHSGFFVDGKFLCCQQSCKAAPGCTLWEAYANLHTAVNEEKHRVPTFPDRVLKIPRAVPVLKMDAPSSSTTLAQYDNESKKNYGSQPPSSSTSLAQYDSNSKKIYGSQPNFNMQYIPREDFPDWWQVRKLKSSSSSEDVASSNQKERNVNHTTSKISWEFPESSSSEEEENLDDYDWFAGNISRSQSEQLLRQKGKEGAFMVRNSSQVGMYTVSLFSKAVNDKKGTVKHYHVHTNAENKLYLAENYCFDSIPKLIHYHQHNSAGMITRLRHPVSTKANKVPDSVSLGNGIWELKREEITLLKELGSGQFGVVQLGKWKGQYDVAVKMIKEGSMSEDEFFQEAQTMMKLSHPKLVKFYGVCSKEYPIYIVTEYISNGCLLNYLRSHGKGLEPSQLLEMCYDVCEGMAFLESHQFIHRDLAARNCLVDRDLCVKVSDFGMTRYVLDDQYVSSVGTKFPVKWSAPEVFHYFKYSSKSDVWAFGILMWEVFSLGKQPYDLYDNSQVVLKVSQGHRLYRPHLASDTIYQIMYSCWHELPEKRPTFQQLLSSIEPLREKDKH

Assay [3] deals with T3, TAO1(h) (Homo sapiens, UniProt Q7L7X3).
T3 construct: purchased Millipore KinaseProfiler
T3 sequence (Q7L7X3 1-1001): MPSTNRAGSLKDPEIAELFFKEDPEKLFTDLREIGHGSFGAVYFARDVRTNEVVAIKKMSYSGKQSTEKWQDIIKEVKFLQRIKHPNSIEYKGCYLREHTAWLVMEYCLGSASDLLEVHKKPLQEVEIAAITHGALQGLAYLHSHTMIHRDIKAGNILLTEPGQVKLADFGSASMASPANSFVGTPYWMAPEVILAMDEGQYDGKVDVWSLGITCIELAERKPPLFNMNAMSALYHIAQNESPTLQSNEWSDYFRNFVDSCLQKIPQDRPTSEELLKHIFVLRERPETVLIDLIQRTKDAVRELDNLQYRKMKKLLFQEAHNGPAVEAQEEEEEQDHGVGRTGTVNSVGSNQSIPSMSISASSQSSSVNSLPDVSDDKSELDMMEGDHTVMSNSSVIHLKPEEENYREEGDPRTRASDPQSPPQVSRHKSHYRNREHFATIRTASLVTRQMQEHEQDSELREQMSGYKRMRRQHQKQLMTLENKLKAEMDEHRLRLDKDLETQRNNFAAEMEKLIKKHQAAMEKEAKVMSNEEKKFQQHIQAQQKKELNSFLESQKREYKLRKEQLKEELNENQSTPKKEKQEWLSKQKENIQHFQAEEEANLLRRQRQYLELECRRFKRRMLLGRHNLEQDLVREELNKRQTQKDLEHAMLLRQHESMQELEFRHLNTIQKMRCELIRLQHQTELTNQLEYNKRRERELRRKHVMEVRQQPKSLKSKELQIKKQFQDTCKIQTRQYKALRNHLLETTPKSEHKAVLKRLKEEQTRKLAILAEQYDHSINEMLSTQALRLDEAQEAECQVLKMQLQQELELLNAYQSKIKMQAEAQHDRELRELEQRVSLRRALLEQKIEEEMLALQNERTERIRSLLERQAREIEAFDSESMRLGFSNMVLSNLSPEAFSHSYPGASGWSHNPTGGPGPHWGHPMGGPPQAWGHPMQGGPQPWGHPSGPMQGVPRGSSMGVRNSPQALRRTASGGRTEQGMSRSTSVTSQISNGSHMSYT

Assay [4] concerns the target T4, DAPK1(h) (Homo sapiens, UniProt P53355).
T4 construct: purchased Millipore KinaseProfiler

Assay [5] deals with T5, Arg(m) (Mus musculus, UniProt Q4JIM5).
T5 construct: purchased Millipore KinaseProfiler
T5 sequence (Q4JIM5 2-1182 limits assumed): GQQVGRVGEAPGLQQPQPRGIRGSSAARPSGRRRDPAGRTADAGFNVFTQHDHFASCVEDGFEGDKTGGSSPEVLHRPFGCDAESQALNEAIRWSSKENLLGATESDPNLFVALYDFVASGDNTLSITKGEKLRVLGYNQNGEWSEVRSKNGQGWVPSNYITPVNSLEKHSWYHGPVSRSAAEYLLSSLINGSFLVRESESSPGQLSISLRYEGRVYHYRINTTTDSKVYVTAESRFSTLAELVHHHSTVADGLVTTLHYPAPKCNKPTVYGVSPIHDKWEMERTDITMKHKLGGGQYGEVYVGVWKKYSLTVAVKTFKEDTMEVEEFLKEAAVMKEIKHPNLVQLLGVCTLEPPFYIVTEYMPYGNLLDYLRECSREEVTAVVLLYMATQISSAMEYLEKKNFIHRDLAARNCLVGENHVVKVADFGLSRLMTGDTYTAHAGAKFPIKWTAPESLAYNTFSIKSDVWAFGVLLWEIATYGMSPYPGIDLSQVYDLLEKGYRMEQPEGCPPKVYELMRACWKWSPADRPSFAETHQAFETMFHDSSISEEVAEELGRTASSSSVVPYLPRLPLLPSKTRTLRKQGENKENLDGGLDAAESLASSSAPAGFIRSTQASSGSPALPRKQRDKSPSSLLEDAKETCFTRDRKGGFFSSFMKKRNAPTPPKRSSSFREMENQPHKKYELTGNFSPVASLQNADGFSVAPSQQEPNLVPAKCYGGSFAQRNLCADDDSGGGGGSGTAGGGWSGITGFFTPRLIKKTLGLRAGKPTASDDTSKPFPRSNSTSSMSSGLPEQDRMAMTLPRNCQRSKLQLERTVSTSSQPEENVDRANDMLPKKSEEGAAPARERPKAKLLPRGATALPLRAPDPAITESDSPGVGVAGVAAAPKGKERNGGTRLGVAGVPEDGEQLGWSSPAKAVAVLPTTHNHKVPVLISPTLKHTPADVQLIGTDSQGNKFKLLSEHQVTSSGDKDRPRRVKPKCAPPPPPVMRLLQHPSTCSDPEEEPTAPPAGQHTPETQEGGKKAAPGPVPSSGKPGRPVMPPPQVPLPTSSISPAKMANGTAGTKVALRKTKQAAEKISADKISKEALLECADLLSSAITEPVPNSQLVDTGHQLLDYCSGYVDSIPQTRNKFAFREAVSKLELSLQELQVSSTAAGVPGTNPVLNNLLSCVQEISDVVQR

For assay [6], the target named is T6, NEK6(h) (Homo sapiens, UniProt Q9HC98).
T6 construct: purchased Millipore KinaseProfiler
T6 sequence (Q9HC98 whole entry): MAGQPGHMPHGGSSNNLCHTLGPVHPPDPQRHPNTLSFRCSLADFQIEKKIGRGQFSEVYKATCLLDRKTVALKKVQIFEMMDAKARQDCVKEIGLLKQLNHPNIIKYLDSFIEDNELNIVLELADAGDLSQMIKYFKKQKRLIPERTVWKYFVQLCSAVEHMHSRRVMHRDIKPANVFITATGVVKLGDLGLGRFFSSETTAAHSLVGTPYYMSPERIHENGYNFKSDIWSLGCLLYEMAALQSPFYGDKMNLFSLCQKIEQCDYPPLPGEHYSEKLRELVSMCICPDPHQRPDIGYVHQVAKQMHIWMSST

Read-outs that look alike come from different tables or passages of the source.

T4 sequence (P53355 whole entry): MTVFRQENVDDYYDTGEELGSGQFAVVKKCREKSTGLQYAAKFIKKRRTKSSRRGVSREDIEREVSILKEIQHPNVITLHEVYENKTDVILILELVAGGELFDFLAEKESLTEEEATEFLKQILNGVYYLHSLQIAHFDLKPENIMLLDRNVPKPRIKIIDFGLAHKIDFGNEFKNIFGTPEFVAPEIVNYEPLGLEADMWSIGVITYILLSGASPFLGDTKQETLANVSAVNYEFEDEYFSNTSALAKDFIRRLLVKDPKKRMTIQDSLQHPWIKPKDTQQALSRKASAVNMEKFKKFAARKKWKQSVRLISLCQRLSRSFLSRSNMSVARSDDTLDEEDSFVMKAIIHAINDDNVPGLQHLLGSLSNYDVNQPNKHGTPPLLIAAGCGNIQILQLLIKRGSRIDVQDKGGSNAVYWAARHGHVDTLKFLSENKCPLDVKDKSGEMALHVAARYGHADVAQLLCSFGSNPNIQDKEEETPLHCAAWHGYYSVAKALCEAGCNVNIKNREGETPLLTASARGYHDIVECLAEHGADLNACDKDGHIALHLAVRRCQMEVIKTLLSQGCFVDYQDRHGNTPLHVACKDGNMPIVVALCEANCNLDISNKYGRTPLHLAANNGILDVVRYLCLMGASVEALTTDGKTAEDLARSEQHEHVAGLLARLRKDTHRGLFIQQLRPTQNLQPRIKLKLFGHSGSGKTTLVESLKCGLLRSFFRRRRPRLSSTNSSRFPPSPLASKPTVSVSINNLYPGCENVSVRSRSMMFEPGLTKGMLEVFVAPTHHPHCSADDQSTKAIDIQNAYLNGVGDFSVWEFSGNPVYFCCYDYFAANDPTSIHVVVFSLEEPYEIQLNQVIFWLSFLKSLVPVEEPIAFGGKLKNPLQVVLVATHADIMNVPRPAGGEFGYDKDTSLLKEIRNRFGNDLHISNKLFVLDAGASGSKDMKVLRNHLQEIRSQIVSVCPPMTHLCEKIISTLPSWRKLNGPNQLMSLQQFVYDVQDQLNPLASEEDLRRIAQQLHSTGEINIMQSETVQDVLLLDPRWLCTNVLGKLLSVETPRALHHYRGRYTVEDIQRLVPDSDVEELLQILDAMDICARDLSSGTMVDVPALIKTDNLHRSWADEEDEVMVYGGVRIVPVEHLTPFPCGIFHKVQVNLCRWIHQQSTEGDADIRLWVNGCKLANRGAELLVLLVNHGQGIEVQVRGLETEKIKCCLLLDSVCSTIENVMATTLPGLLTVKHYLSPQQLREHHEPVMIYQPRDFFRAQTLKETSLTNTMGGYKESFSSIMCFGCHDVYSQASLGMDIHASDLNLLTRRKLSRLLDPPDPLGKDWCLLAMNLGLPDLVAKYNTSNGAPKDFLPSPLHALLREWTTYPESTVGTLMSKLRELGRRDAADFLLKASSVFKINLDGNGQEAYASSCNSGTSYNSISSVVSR

The term inhibition denotes the change of the read-out against control, counted positive when it falls. For the molecule `Cn1ncc(Cl)c1-c1cc(C(=O)N[C@H](CN)Cc2ccc(F)c(F)c2)oc1Cl` [GSK2141795], the inhibition at 0.5 µM in assay [1] (0.5 µM, read-out: % Inhibition) is -8%; in assay [2] (0.5 µM, read-out: % Inhibition) it was -6%; in assay [3] (0.5 µM, read-out: % Inhibition), -4%; in assay [4] (0.5 µM, read-out: % Inhibition) it was 1%; in assay [5] (0.5 µM, read-out: % Inhibition), -1%; in assay [6] (0.5 µM, read-out: % Inhibition), -17%. The inhibition at 10 µM in assay [1] (10 µM, read-out: % Inhibition) was 0%; in assay [2] (10 µM, read-out: % Inhibition), 21%; in assay [3] (10 µM, read-out: % Inhibition), 24%; in assay [4] (10 µM, read-out: % Inhibition), 41%; in assay [5] (10 µM, read-out: % Inhibition) it was 7%; in assay [6] (10 µM, read-out: % Inhibition), -22%.
Regarding `Cn1ncc(Cl)c1-c1cc(C(=O)N[C@H](CN)Cc2cccc(F)c2)sc1Cl` [GSK2110183], the inhibition at 0.5 µM is -8% in assay [1]; -2% in assay [2]; 15% in assay [3]; 1% in assay [4]; -1% in assay [5]; -25% in assay [6]. In addition, the inhibition at 10 µM in assay [1] is 4%; in assay [2], 18%; in assay [3], 49%; in assay [4] it was 28%; in assay [5], 1%; in assay [6], -11%.
